Assay type in all cases: biochemical
The target of test [1] is T1, human JAK1 (a.a. 837-1142) (Homo sapiens, UniProt P23458).
T1 construct: human JAK1 (a.a. 837-1142); His tag (N); made in house; host or cells: insect cells (baculovirus)
Nature of the test: In vitro JAK kinase assay (HTRF, phosphorylation of a biotinylated peptide), JAK1. To be noted: read-out: JAK1 IC50. In outline: (§1)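 Phosphorylation of a biotinylated peptide by the JAK kinase domain, detected by HTRF with Eu-Py20 and SA-APC. ATP was 90 μM for JAK1, 30 μM for JAK2 and 3 μM for JAK3. Reactions ran 1 h at room temperature and were stopped with EDTA, followed by 40 min antibody binding.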

The target of test [2] is T2, human JAK2 (a.a. 828-1132) (Homo sapiens, UniProt O60674).
T2 construct: JAK2 (a.a. 828-1132); His tag (N); made in house; host or cells: insect cells (baculovirus)
T2 sequence (O60674 828-1132): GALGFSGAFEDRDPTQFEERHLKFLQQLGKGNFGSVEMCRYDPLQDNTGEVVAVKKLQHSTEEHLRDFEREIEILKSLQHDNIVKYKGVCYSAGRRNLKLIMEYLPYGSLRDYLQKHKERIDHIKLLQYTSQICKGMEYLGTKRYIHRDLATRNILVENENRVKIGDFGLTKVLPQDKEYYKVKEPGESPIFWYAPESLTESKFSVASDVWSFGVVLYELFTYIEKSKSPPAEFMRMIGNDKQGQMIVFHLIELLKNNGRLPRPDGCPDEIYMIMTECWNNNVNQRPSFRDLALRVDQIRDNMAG
Briefly: In vitro JAK kinase assay (HTRF, phosphorylation of a biotinylated peptide), JAK2. An outline of the steps:
as §1

Test [3] concerns the target T3, human JAK3 (a.a. 781-1124) (Homo sapiens, UniProt P52333).
T3 construct: JAK3 (a.a. 781-1124); His tag (N); made in house; host or cells: insect cells (baculovirus)
Nature of the test: In vitro JAK kinase assay (HTRF, phosphorylation of a biotinylated peptide), JAK3. An outline of the steps: as §1

For a further test, the target named is TYK2 (Homo sapiens, UniProt P29597). Briefly: TYK2 kinase inhibition (Table A1).
TYK2, sequence (P29597 whole entry): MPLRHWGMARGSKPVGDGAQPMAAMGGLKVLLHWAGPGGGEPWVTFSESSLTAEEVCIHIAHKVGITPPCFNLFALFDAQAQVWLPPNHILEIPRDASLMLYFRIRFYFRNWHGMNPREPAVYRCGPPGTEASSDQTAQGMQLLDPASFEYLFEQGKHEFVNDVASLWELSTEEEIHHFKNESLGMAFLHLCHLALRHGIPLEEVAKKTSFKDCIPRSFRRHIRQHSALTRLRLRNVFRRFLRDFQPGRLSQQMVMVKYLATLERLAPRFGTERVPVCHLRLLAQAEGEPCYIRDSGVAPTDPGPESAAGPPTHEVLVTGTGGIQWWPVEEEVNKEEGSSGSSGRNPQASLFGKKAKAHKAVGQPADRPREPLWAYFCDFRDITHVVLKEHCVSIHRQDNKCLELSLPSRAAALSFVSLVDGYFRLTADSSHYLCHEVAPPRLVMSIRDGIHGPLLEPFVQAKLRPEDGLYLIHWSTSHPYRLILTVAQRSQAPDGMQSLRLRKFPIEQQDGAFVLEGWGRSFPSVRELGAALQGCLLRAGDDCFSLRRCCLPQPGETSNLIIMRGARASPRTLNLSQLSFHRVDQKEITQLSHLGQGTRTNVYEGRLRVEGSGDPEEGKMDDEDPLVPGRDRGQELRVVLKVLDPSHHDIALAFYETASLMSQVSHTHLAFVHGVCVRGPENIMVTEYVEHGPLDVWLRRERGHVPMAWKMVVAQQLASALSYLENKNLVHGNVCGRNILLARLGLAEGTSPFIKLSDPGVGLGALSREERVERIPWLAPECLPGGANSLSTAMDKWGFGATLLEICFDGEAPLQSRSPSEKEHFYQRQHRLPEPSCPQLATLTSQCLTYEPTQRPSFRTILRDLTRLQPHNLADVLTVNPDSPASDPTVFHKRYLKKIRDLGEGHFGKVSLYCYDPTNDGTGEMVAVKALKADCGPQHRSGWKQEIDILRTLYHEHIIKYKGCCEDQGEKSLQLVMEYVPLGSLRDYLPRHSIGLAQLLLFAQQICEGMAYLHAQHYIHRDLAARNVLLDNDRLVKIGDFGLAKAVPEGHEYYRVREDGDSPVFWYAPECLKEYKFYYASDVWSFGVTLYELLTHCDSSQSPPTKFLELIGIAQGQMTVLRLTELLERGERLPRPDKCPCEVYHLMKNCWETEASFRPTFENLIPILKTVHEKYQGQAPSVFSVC

pIC50: −log10 of the molar value. Where a name gives a salt, the structure may show the parent alone. Read-outs that look alike come from different tables or passages of the source.

T1 sequence (P23458 849-1154): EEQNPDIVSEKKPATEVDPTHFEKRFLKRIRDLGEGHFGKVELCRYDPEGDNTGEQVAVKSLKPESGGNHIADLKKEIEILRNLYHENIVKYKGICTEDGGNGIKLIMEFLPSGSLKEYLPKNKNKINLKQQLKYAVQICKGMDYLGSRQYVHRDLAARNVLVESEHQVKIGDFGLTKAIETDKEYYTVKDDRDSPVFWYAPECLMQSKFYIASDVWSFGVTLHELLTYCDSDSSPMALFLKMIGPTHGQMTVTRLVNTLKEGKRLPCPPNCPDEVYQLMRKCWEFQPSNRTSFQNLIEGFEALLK
T3 sequence (P52333 781-1124): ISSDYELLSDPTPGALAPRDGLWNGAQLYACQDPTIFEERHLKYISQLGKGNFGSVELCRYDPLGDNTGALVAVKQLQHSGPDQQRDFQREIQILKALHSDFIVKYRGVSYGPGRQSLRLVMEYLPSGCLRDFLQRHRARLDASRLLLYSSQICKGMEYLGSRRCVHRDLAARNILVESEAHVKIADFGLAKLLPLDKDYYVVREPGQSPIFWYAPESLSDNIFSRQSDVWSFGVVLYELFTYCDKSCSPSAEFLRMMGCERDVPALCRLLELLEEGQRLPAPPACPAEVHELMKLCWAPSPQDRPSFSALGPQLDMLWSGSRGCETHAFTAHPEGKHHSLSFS

`CC(=O)N1CCC[C@H](CC(=O)Nc2ccc3cc2CCc2cccc(c2)Nc2ncc(Cl)c(n2)N3)C1` [Example D201, 2-[(3R)-1-Acetylpiperidin-3-yl]-N-[6-chloro-2,4,8,22-tetraazatetracyclo[14.3.1.1(3,7).1(9,13)]docosa-1(20),3(22),4,6,9(21),10,12,16,18-nonaen-12-yl]acetamide trifluoroacetate]: the pIC50 in test [1] (Table D1) is 7.72; in test [2] (Table D1), 8.00; in test [3] (Table D1) it was 7.54; against TYK2 (Table D1), 7.46.

For `O=C(Cc1nnn[nH]1)Nc1ccc2cc1CCc1cccc(c1)Nc1ncc(Cl)c(n1)N2` [Example C31, N-[6-Chloro-2,4,8,22-tetraazatetracyclo[14.3.1.1(3,7).1(9,13)]docosa-1(20),3(22),4,6,9(21),10,12,16,18-nonaen-12-yl]-2-(1H-tetrazol-5-yl)acetamide trifluoroacetate], the pIC50 in test [1] was 6.85; in test [2], 7.62; in test [3], 6.39; against TYK2, 6.32.

`CN1c2cccc(c2)CCc2cccc(c2)Nc2nccc1n2` [Example D223, 8-Methyl-2,4,8,22-tetraazatetracyclo[14.3.1.1(3,7).1(9,13)]docosa-1(20),3(22),4,6,9(21),10,12,16,18-nonaene trifluoroacetate]: the pIC50 is less than 6.40 in test [1] (Table D1), 6.97 in test [2] (Table D1), less than 6.40 in test [3] (Table D1) and less than 6.40 against TYK2 (Table D1).

With `Cc1cc(C(=O)N2CCC(Nc3ccc4cc3CCc3cncc(c3)Nc3ncc(Cl)c(n3)N4)CC2)no1` [Example D160, 6-Chloro-N-{1-[(5-methylisoxazol-3-yl)carbonyl]piperidin-4-yl}-2,4,8,18,22-pentaazatetracyclo[14.3.1.1(3,7).1(9,13)]docosa-1(20),3(22),4,6,9(21),10,12,16,18-nonaen-12-amine tris(trifluoroacetate)], the pIC50 is 6.61 in test [1] (Table D1), 6.47 in test [2] (Table D1), less than 6.40 in test [3] (Table D1) and less than 6.40 against TYK2 (Table D1).

Consider `N#Cc1ccc(NC(=O)N2CCC(C(=O)Nc3ccc4cc3CCc3cccc(c3)Nc3ncc(Cl)c(n3)N4)CC2)cc1` [Example A37, N(4)-[6-Chloro-2,4,8,22-tetraazatetracyclo[14.3.1.1(3,7).1(9,13)]docosa-1(20),3(22),4,6,9(21),10,12,16,18-nonaen-12-yl]-N(1)-(4-cyanophenyl)piperidine-1,4-dicarboxamide trifluoroacetate], for which the pIC50 is 8.05 in test [1] (method AA1 (90 μM ATP) or AA2 (1000 μM ATP), not stated per value); 7.96 in test [2] (method AA1 (30 μM ATP) or AA2 (1000 μM ATP), not stated per value); 7.62 in test [3] (method AA1 (3 μM ATP) or AA2 (1000 μM ATP), not stated per value); 7.68 against TYK2.

For `N#Cc1ccc(N2CCN(C(=O)COc3ccc4cc3CCc3cncc(c3)Nc3ncc(Cl)c(n3)N4)CC2)cc1` [Example D236, 4-[4-({[6-Chloro-2,4,8,18,22-pentaazatetracyclo[14.3.1.1(3,7).1(9,13)]docosa-1(20),3(22),4,6,9(21),10,12,16,18-nonaen-12-yl]oxy}acetyl)piperazin-1-yl]benzonitrile tris(trifluoroacetate)], the pIC50 in test [1] (Table D1) was 7.05; in test [2] (Table D1), 6.54; in test [3] (Table D1), less than 6.40; against TYK2 (Table D1) it was less than 6.40.

Regarding `O=C(COc1ccc2cc1CCc1cncc(c1)Nc1ncc(Cl)c(n1)N2)N1CCC(c2nc(-c3cccs3)no2)CC1` [Example D258, 6-Chloro-12-(2-oxo-2-{4-[3-(2-thienyl)-1,2,4-oxadiazol-5-yl]piperidin-1-yl}ethoxy)-2,4,8,18,22-pentaazatetracyclo[14.3.1.1(3,7).1(9,13)]docosa-1(20),3(22),4,6,9(21),10,12,16,18-nonaene bis(trifluoroacetate)], the pIC50 is 7.15 in test [1] (Table D1), 6.95 in test [2] (Table D1), less than 6.40 in test [3] (Table D1) and less than 6.40 on TYK2 (Table D1).

In the case of `O=C(CC1CN(C(=O)c2cn[nH]c2)C1)Nc1ccc2cc1CCc1cncc(c1)Nc1ncc(Cl)c(n1)N2` [Example D149, N-[6-Chloro-2,4,8,18,22-pentaazatetracyclo[14.3.1.1(3,7).1(9,13)]docosa-1(20),3(22),4,6,9(21),10,12,16,18-nonaen-12-yl]-2-[1-(1H-pyrazol-4-ylcarbonyl)azetidin-3-yl]acetamide bis(trifluoroacetate)], the pIC50 in test [1] (Table D1) was 7.74; in test [2] (Table D1), 7.03; in test [3] (Table D1), less than 6.00; against TYK2 (Table D1), 6.77.

Regarding `Clc1cnc2nc1Nc1ccc(N3CCNCC3)c(c1)CCc1cccc(c1)N2` [Example D83, 6-Chloro-12-piperazin-1-yl-2,4,8,22-tetraazatetracyclo[14.3.1.1(3,7).1(9,13)]docosa-1(20),3(22),4,6,9(21),10,12,16,18-nonaene bis(trifluoroacetate)], the pIC50 in test [1] (Table D1) was 6.90; in test [2] (Table D1), 7.59; in test [3] (Table D1), 7.24; on TYK2 (Table D1), 6.89.

As to `O=C(CC1CN(C(=O)c2c[nH]nn2)C1)Nc1ccc2cc1CCc1cncc(c1)Nc1ncc(Cl)c(n1)N2` [Example D148, N-[6-Chloro-2,4,8,18,22-pentaazatetracyclo[14.3.1.1(3,7).1(9,13)]docosa-1(20),3(22),4,6,9(21),10,12,16,18-nonaen-12-yl]-2-[1-(1H-1,2,3-triazol-4-ylcarbonyl)azetidin-3-yl]acetamide bis(trifluoroacetate)], the pIC50 in test [1] (Table D1) was 7.82; in test [2] (Table D1), 7.47; in test [3] (Table D1), less than 6.00; against TYK2 (Table D1) it was 6.38.

Take `O=C(Cc1noc2ccccc12)Nc1ccc2cc1CCc1cccc(c1)Nc1ncc(Cl)c(n1)N2` [Example C45, 2-(1,2-Benzisoxazol-3-yl)-N-[6-chloro-2,4,8,22-tetraazatetracyclo[14.3.1.1(3,7).1(9,13)]docosa-1(20),3(22),4,6,9(21),10,12,16,18-nonaen-12-yl]acetamide trifluoroacetate]: the pIC50 in test [1] was 6.78; in test [2], 6.49; in test [3], less than 5.00; at TYK2, 6.26.

Regarding `Cn1cc(C(=O)N2CC(CC(=O)Nc3ccc4cc3CCc3cncc(c3)Nc3ncc(Cl)c(n3)N4)C2)cn1` [Example D142, N-[6-Chloro-2,4,8,18,22-pentaazatetracyclo[14.3.1.1(3,7).1(9,13)]docosa-1(20),3(22),4,6,9(21),10,12,16,18-nonaen-12-yl]-2-{1-[(1-methyl-1H-pyrazol-4-yl)carbonyl]azetidin-3-yl}acetamide bis(trifluoroacetate)], the pIC50 in test [1] (Table D1) was 7.43; in test [2] (Table D1), 6.84; in test [3] (Table D1), less than 6.00; against TYK2 (Table D1), 6.71.

As for `O=C(C[C@@H]1CCCN(C(=O)c2ccccc2)C1)Nc1ccc2cc1CCc1cccc(c1)Nc1ncc(Cl)c(n1)N2` [Example D202, 2-[(3S)-1-Benzoylpiperidin-3-yl]-N-[6-chloro-2,4,8,22-tetraazatetracyclo[14.3.1.1(3,7).1(9,13)]docosa-1(20),3(22),4,6,9(21),10,12,16,18-nonaen-12-yl]acetamide trifluoroacetate], the pIC50 in test [1] (Table D1) is 7.66; in test [2] (Table D1) it was 7.92; in test [3] (Table D1), 7.19; against TYK2 (Table D1), 7.52.

As to `O=C(COc1ccc2cc1CCc1cncc(c1)Nc1ncc(Cl)c(n1)N2)N1CCN(c2cnccn2)CC1` [Example D232, 6-Chloro-12-[2-oxo-2-(4-pyrazin-2-ylpiperazin-1-yl)ethoxy]-2,4,8,18,22-pentaazatetracyclo[14.3.1.1(3,7).1(9,13)]docosa-1(20),3(22),4,6,9(21),10,12,16,18-nonaene tris(trifluoroacetate)], the pIC50 in test [1] (Table D1) was 7.49; in test [2] (Table D1), 6.80; in test [3] (Table D1) it was less than 6.40; against TYK2 (Table D1), less than 6.40.

In the case of `CC(=O)N1CCN(C(=O)COc2ccc3cc2CCc2cncc(c2)Nc2ncc(Cl)c(n2)N3)CC1` [Example D252, 12-[2-(4-Acetylpiperazin-1-yl)-2-oxoethoxy]-6-chloro-2,4,8,18,22-pentaazatetracyclo[14.3.1.1(3,7).1(9,13)]docosa-1(20),3(22),4,6,9(21),10,12,16,18-nonaene bis(trifluoroacetate)], the pIC50 was 7.19 in test [1] (Table D1), 6.61 in test [2] (Table D1), less than 6.40 in test [3] (Table D1) and less than 6.40 against TYK2 (Table D1).

As for `O=C(OCc1ccccc1)N1CCC(CCNc2ccc3cc2CCc2cncc(c2)Nc2ncc(Cl)c(n2)N3)CC1` [Example D215, Benzyl 4-(2-{[6-chloro-2,4,8,18,22-pentaazatetracyclo[14.3.1.1(3,7).1(9,13)]docosa-1(20),3(22),4,6,9(21),10,12,16,18-nonaen-12-yl]amino}ethyl)piperidine-1-carboxylate], the pIC50 in test [1] (Table D1) was 7.89; in test [2] (Table D1), 7.36; in test [3] (Table D1), less than 6.40; against TYK2 (Table D1), 6.56.

As to `O=C(COc1ccc2cc1CCc1cncc(c1)Nc1ncc(Cl)c(n1)N2)N1CCN(c2noc3ccccc23)CC1` [Example D250, 12-{2-[4-(1,2-Benzisoxazol-3-yl)piperazin-1-yl]-2-oxoethoxy}-6-chloro-2,4,8,18,22-pentaazatetracyclo[14.3.1.1(3,7).1(9,13)]docosa-1(20),3(22),4,6,9(21),10,12,16,18-nonaene tris(trifluoroacetate)], the pIC50 is 7.37 in test [1] (Table D1), 7.31 in test [2] (Table D1), less than 6.40 in test [3] (Table D1) and less than 6.40 against TYK2 (Table D1).
